Series [1] in a line: Caco-2 permeability assay (CacoReady kit). The format is in vitro ADME. As to conditions: human. The essentials: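 Read-out is the permeability coefficient Papp, obtained from transport across a Caco-2 barrier prepared from a ready-to-use kit following the manufacturer's instructions.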
For orientation: Caco-2 monolayers are a common model of the intestinal barrier.

Series [2] is described as follows: Log D shake flask method (octanol / PBS pH 7.4, HPLC). The series is classed as physicochemical. Conditions: octanol/phosphate-buffered saline (PBS); octanol / PBS pH 7.4, shake flask. The protocol: In order to classify the inventive compounds according to their lipophilicity, Log D values (distribution coefficient) were determined by means of the well-established shake flask method, measuring the partition of a compound between an octanol and phosphate-buffered saline (PBS, pH 7.4) by HPLC.

Series [3] concerns the target T1, recombinant human transglutaminase 2 (Homo sapiens, UniProt P21980).
T1 construct: purchased Zedira T022
T1 sequence (P21980 1-687): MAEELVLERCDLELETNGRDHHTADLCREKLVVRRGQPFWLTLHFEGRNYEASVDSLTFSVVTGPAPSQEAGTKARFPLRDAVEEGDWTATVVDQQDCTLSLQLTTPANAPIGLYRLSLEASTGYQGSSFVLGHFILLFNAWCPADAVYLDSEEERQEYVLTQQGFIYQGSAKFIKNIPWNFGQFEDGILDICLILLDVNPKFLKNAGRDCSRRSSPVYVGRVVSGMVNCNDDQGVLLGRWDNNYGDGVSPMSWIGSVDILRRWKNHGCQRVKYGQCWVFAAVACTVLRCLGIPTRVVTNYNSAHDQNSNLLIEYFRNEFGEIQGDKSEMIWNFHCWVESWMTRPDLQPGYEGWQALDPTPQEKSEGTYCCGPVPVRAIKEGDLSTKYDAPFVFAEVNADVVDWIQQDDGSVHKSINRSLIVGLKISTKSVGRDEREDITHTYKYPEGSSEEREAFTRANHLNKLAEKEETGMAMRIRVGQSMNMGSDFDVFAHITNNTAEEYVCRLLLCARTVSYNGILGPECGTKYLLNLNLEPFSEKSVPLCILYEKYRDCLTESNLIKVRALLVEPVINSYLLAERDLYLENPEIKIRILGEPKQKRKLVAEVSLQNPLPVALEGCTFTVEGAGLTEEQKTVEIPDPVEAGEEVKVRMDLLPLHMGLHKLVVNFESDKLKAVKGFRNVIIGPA
The experiment in a line: Transglutaminase assay (dansylcadaverine incorporation into dimethylcasein, DCC-assay). The format is biochemical. As to conditions: recombinant human TG2 10 nM, dansylcadaverine/dimethylcasein, 37° C. The essentials:
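IC50 derived from fluorescence slope between 20 and 30 min (λex 330 nm, λem 500 nm, 37 °C), expressed relative to a 2% DMSO control. Reaction: 10 nM recombinant human TG2, 4 μM dimethylcasein, 16.7 μM dansylcadaverine, 10 mM CaCl2 and glutathione, pH 8.0.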

In series [1], `COC(=O)/C=C/CC[C@H](NC(=O)c1oc2ccccc2c1C)C(=O)Nc1cccn(CC(=O)NC2(C#N)C3CC4CC(C3)CC2C4)c1=O` (stereo partly drawn) [III-43, (S,E)-methyl 7-(1-(2-(2-carbonitrileadamantane-2-amino)-2-oxoethyl)-2-oxo-1,2-dihydropyridin-3-ylamino)-6-(3-methylbenzofuran-2-carboxamido)-7-oxohept-2-enoate] had a Papp of under 1 ×10⁻⁶ cm/s. Moreover, the log distribution coefficient (logD) in series [2] was in the range of 3 to 5. The IC50 in series [3] is 25 to 250 nM.

Take `COC(=O)/C=C/CC[C@H](NC(=O)c1oc2ccccc2c1C)C(=O)Nc1cccn(CC(=O)NC2(C(=O)OC)C3CC4CC(C3)CC2C4)c1=O` (stereo partly drawn) [III-44, (S,E)-methyl 7-(1-(2-(2-methyladamantane-2-carboxylate-2-amino)-2-oxoethyl)-2-oxo-1,2-dihydropyridin-3-ylamino)-6-(3-methylbenzofuran-2-carboxamido)-7-oxohept-2-enoate]: in series [1], the Papp was under 1 ×10⁻⁶ cm/s. The same compound yielded a logD in series [2] of 3 to 5. Also, the IC50 in series [3] lay in the range of 25 to 250 nM.

Turning to `COC(=O)/C=C/CC[C@H](NC(=O)c1oc2ccccc2c1C)C(=O)Nc1cccn(CC(=O)NC23CC4CC(CC(C4)C2)C3)c1=O` [III-45, (S,E)-methyl 7-(1-(2-(1-adamantylamino)-2-oxoethyl)-2-oxo-1,2-dihydropyridin-3-ylamino)-6-(3-methylbenzofuran-2-carboxamido)-7-oxohept-2-enoate], in series [1], the Papp lay within 1 to 10 ×10⁻⁶ cm/s. Further, the logD in series [2] lay within 3 to 5. In series [3], the IC50 is 25 to 250 nM.

In the case of `COC(=O)/C=C/CC[C@H](NC(=O)c1oc2ccccc2c1C)C(=O)Nc1cccn(CC(=O)NC23CC4CC(C)(CC(C)(C4)C2)C3)c1=O` [III-46, (S,E)-methyl 7-(1-(2-(3,5-dimethyladamantan-1-amino)-2-oxoethyl)-2-oxo-1,2-dihydropyridin-3-ylamino)-6-(3-methylbenzofuran-2-carboxamido)-7-oxohept-2-enoate], the Papp in series [1] was in the range of 1 to 10 ×10⁻⁶ cm/s. The compound also had a logD in series [2] of 3 to 5. Moreover, the IC50 in series [3] is under 25 nM.

In series [1], `COC(=O)/C=C/CC[C@H](NC(=O)c1oc2ccccc2c1C)C(=O)Nc1cccn(CC(=O)N(C)C23CC4CC(CC(C4)C2)C3)c1=O` [III-47, (S,E)-methyl 7-(1-(2-(1-adamantyl(methyl)amino)-2-oxoethyl)-2-oxo-1,2-dihydropyridin-3-ylamino)-6-(3-methylbenzofuran-2-carboxamido)-7-oxohept-2-enoate] came in with a Papp of 1 to 10 ×10⁻⁶ cm/s. This compound also gave a logD in series [2] of 3 to 5. Further, in series [3], the IC50 fell in the range of 250 to 1500 nM.

In turn, `CCC12CC3CC(C1)CC(NC(=O)Cn1cccc(NC(=O)[C@H](CC/C=C/C(=O)OC)NC(=O)c4oc5ccccc5c4C)c1=O)(C3)C2` [III-48, (S,E)-methyl 7-(1-(2-(3-ethyladamantan-1-amino)-2-oxoethyl)-2-oxo-1,2-dihydropyridin-3-ylamino)-6-(3-methylbenzofuran-2-carboxamido)-7-oxohept-2-enoate] had a Papp in series [1] of 1 to 10 ×10⁻⁶ cm/s. The compound also yielded a logD in series [2] of 3 to 5. Also, the IC50 in series [3] was 25 to 250 nM.

In series [1], `COC(=O)/C=C/CC[C@H](NC(=O)c1oc2ccccc2c1C)C(=O)Nc1cccn(CC(=O)NC23CC4CC(C2)CC(C(F)(F)F)(C4)C3)c1=O` [III-49, (S,E)-methyl 7-(1-(2-(3-trifluoromethyladamantan-1-amino)-2-oxoethyl)-2-oxo-1,2-dihydropyridin-3-ylamino)-6-(3-methylbenzofuran-2-carboxamido)-7-oxohept-2-enoate] came in with a Papp of 1 to 10 ×10⁻⁶ cm/s. Besides, the logD in series [2] is 3 to 5. In addition, the IC50 in series [3] lay within 25 to 250 nM.

`COC(=O)/C=C/CC[C@H](NC(=O)c1oc2ccccc2c1C)C(=O)Nc1cccn(CC(=O)NC23CC4CC(CC(O)(C4)C2)C3)c1=O` [III-50, (S,E)-methyl 7-(1-(2-(3-hydroxyadamantan-1-amino)-2-oxoethyl)-2-oxo-1,2-dihydropyridin-3-ylamino)-6-(3-methylbenzofuran-2-carboxamido)-7-oxohept-2-enoate] had a Papp in series [1] of under 1 ×10⁻⁶ cm/s. In series [2], this compound gave a logD of 1 to 3. Further, in series [3], the IC50 lay within 25 to 250 nM.

Take `COC(=O)/C=C/CC[C@H](NC(=O)c1oc2ccccc2c1C)C(=O)Nc1cccn(CC(=O)NC23CC4CC(CC(F)(C4)C2)C3)c1=O` [III-51, (S,E)-methyl 7-(1-(2-(3-fluoroadamantan-1-amino)-2-oxoethyl)-2-oxo-1,2-dihydropyridin-3-ylamino)-6-(3-methylbenzofuran-2-carboxamido)-7-oxohept-2-enoate]: in series [1], the Papp is 1 to 10 ×10⁻⁶ cm/s. This compound came in with a logD in series [2] of 3 to 5. The IC50 in series [3] was under 25 nM.

In series [1], `COC(=O)/C=C/CC[C@H](NC(=O)c1oc2ccccc2c1C)C(=O)Nc1cccn(CC(=O)NC23CC4CC(CC(Cl)(C4)C2)C3)c1=O` [III-52, (S,E)-methyl 7-(1-(2-(3-chloroadamantan-1-amino)-2-oxoethyl)-2-oxo-1,2-dihydropyridin-3-ylamino)-6-(3-methylbenzofuran-2-carboxamido)-7-oxohept-2-enoate] had a Papp of 1 to 10 ×10⁻⁶ cm/s. The compound also showed a logD in series [2] of 3 to 5. For the same compound, the IC50 in series [3] is under 25 nM.

As to `COC(=O)/C=C/CC[C@H](NC(=O)c1oc2ccccc2c1C)C(=O)Nc1cccn(CC(=O)NC23CC4CC(CC(Br)(C4)C2)C3)c1=O` [III-53, (S,E)-methyl 7-(1-(2-(3-bromoadamantan-1-amino)-2-oxoethyl)-2-oxo-1,2-dihydropyridin-3-ylamino)-6-(3-methylbenzofuran-2-carboxamido)-7-oxohept-2-enoate], the Papp in series [1] fell in the range of 1 to 10 ×10⁻⁶ cm/s. This compound also gave a logD in series [2] of 3 to 5. For the same compound, in series [3], the half-inhibitory concentration (IC50) is under 25 nM.

Turning to `COC(=O)/C=C/CC[C@H](NC(=O)c1oc2ccccc2c1C)C(=O)Nc1cccn(CC(=O)NC23CC4CC(C2)CC(C(=O)OC)(C4)C3)c1=O` [III-54, (S,E)-methyl 7-(1-(2-(3-methyladamantane-3-carboxylate-1-amino)-2-oxoethyl)-2-oxo-1,2-dihydropyridin-3-ylamino)-6-(3-methylbenzofuran-2-carboxamido)-7-oxohept-2-enoate], the Papp in series [1] was under 1 ×10⁻⁶ cm/s. Moreover, the logD in series [2] was in the range of 3 to 5. Moreover, in series [3], the IC50 lay within 25 to 250 nM.

Turning to `COC(=O)/C=C/CC[C@H](NC(=O)c1oc2ccccc2c1C)C(=O)Nc1cccn(CC(=O)NC23CC4CC(C2)C(F)(F)C(C4)C3)c1=O` [III-55, (S,E)-methyl 7-(1-(2-(4,4-difluoroadamantan-1-amino)-2-oxoethyl)-2-oxo-1,2-dihydropyridin-3-ylamino)-6-(3-methylbenzofuran-2-carboxamido)-7-oxohept-2-enoate], in series [1], the apparent permeability coefficient (Papp) is 1 to 10 ×10⁻⁶ cm/s. In addition, the logD in series [2] was in the range of 3 to 5. In series [3], the IC50 lay within 25 to 250 nM.

Take `COC(=O)/C=C/CC[C@H](NC(=O)c1oc2ccccc2c1C)C(=O)Nc1cccn(CC(=O)NCC23CC4CC(CC(C4)C2)C3)c1=O` [III-56, (S,E)-methyl 7-(1-(2-(1-adamantylmethylamino)-2-oxoethyl)-2-oxo-1,2-dihydropyridin-3-ylamino)-6-(3-methylbenzofuran-2-carboxamido)-7-oxohept-2-enoate]: the apparent permeability coefficient (Papp) in series [1] fell in the range of 1 to 10 ×10⁻⁶ cm/s. Also, the logD in series [2] is 3 to 5. Also, in series [3], the IC50 was 25 to 250 nM.

Turning to `COC(=O)/C=C/CC[C@H](NC(=O)c1oc2ccccc2c1C)C(=O)Nc1cccn(CC(=O)NC(C)C23CC4CC(CC(C4)C2)C3)c1=O` (stereo partly drawn) [III-57, (S,E)-methyl 7-(1-(2-(1-(1-adamantyl)ethanamino)-2-oxoethyl)-2-oxo-1,2-dihydropyridin-3-ylamino)-6-(3-methylbenzofuran-2-carboxamido)-7-oxohept-2-enoate], the Papp in series [1] was 1 to 10 ×10⁻⁶ cm/s. Further, the logD in series [2] was in the range of 3 to 5. For the same compound, in series [3], the IC50 was 25 to 250 nM.

`COC(=O)/C=C/CC[C@H](NC(=O)c1cncn1C)C(=O)Nc1cccn(CC(=O)N[C@@H]2C[C@@H]3CC[C@H]2C3)c1=O` [III-58, (S,E)-methyl 7-(1-(2-((1S,2R,4R)-bicyclo[2.2.1]heptan-2-ylamino)-2-oxoethyl)-2-oxo-1,2-dihydropyridin-3-ylamino)-6-(1-methyl-1H-imidazole-5-carboxamido)-7-oxohept-2-enoate] had a Papp in series [1] of under 1 ×10⁻⁶ cm/s. Further, in series [2], the logD was 1 to 3. The IC50 in series [3] is under 25 nM.

Take `COC(=O)/C=C/CC[C@H](NC(=O)c1oc2ccccc2c1C)C(=O)Nc1cccn(CC(=O)N[C@@H]2C[C@@H]3CC[C@H]2C3)c1=O` [III-59, (S,E)-methyl 7-(1-(2-((1 S,2R,4R)-bicyclo[2.2.1]heptan-2-ylamino)-2-oxoethyl)-2-oxo-1,2-dihydropyridin-3-ylamino)-6-(3-methylbenzofuran-2-carboxamido)-7-oxohept-2-enoate]: the apparent permeability coefficient (Papp) in series [1] lay within 1 to 10 ×10⁻⁶ cm/s. This compound also displayed a logD in series [2] of 3 to 5. In series [3], the IC50 is under 25 nM.

As usually defined, the Papp is the rate of passage across a membrane or cell layer, normalised by area and donor concentration. By logD is commonly meant the decadic logarithm of the distribution of all forms, ionised or not, between an organic phase and buffer at a given pH. Higher therefore signals higher lipophilicity. For orientation: IC50 means the concentration at which inhibition is half-maximal.

Source of the values: patent US20240317708A1, “INHIBITORS OF TRANSGLUTAMINASES” (ZEDIRA GMBH, priority 2021, published 2024).
